Experimental findings from PMC6694100, “The complex of ferric-enterobactin with its transporter from Pseudomonas aeruginosa suggests a two-site model” (Nature Communications, 2019) are described below.

Where “and” joins values, the source holds several entries; their conditions need not be identical. Equal values may be shown once. Entries after “also recorded” stand apart in the source; their conditions may differ.

The subject of assay [1] is ∆pfeA cells with no plasmid. Nature of the assay: 55Fe-enterobactin binding and uptake assay, ∆pfeA. Format: cell-based, Pseudomonas aeruginosa. As to conditions: for 55Fe count, Comptage / 55Fe-enterobactin bound/taken up: replicates, Figure 6b-c, listed as 55Fe-enterobactin. The method, then:
Fig. 6 Effects of PfeA mutation in vivo. a Analysis of changes in the transcription of pfeA gene. PAO1 strain, its corresponding deletion mutant ∆pfeA and deletion mutants carrying the expression plasmid of PfeA wild-type (∆pfeA(pMMBpfeA) or the R480A-Q482A mutant (∆pfeA(pMMBpfeAR480AQ482A)) were grown in CAA medium supplemented with 10 µM enterobactin. The data were normalised relative to the reference gene uvrD, and are representative of three independent experiments performed in triplicate (n = 3). The results are given as a ratio between the values obtained for ∆pfeA, ∆pfeA(pMMBpfeA) and ∆pfeA(pMMBpfeAR480AQ482A) over those obtained for the PAO1 strain. b ^55Fe-enterobactin binding at the bacterial surface. Cells were grown as in panel a, and were incubated for 15 min with 200 µM CCCP before initiation of transport assays by the addition of 500 nM ^55Fe-enterobactin. After 30 min incubation, the radioactivity accumulated in the bacteria was counted. The results are expressed as pmol of ^55Fe-enterobactin bound per ml of cells at an OD600 of 1. The experiments have been repeated three times. c ^55Fe-enterobactin binding and uptake. Cells were grown as in panel a, and were incubated with or without 200 µM CCCP before initiation of transport assays by the addition of 500 nM ^55Fe-enterobactin. After 30 min incubations, the radioactivity accumulated in the bacteria was counted. The results are expressed as pmol of ^55Fe-enterobactin bound and transported per ml of cells at an OD600 of 1. The experiments have been repeated three times
The complex was prepared at ^55Fe concentrations of 50 μM, with a siderophore:iron (mol:mol) ratio of 20:1. P. aeruginosa strains were first grown overnight at 30 °C in LB broth, and were then washed, resuspended and cultured overnight at 30 °C in iron-deficient CAA medium (casamino acid medium, composition: 5 g.l^−1 low-iron CAA (Difco), 1.46 g.l^−1 K2HPO4 3H2O, 0.25 g.l^−1 MgSO4 7H2O) and in the presence of 10 µM enterobactin to induce the expression of PfeA. CAA is a highly iron-restricted medium with iron concentrations of 20 nM[59]. Afterwards bacteria were washed with 50 mM Tris-HCl pH 8.0, and diluted to an OD600 of 1. Cells solutions were divided in two, one batch being treated with 200 μM CCCP. This compound collapses the proton-motive force across the bacterial cell membranes, inhibiting TonB-dependent iron uptake. Binding and transport assays were initiated by adding 500 nM ^55Fe-enterobactin to the bacterial solutions treated or not with CCCP. After 30 min of incubations, cells were centrifuged, and the radioactivity associated to the bacteria was monitored in the cell pellets. For the cells treated with CCCP, the radioactivity in the cell pellets corresponds to the binding of ^55Fe-enterobactin to P. aeruginosa cell surface, since no uptake occurs. In the absence of CCCP, the radioactivity associated to the cells corresponds to ^55Fe-enterobactin binding to the cell surface and the uptake into the bacteria.

Assay [2] has as its target T1, PfeA R480A-Q482A double mutant (Pseudomonas aeruginosa, UniProt Q05098, Q507A/R505A).
T1 construct: His7 tag with TEV protease site (N, cleaved yes); made in house; host or cells: E. coli C43 (DE3)
The assay can be described thus: isothermal titration calorimetry, PfeA R480A-Q482A. Format: binding. The method, then:
(§1) The sites have different affinities for the ligand, one with high affinity and highly favourable enthalpy and the second with lower affinity and unfavourable enthalpy. Although the biphasic nature of the isotherm was reproducible, the numerical values varied. For K1, the binding constant was 20 to 100 nM; for K2 […]. […] The weaker binding at the […] site is consistent with the higher B-factor of the Fe^3+-enterobactin molecule observed in the complex crystal structures.
(§2) Affinities of PfeA wild-type and mutants for Fe^3+-enterobactin were measured by isothermal titration calorimetry using a VP-ITC instrument (GE Healthcare) at 25 °C. Titrations were performed using 57 × 5 μl injections of Fe^3+-enterobactin (70–55 μM) into 10 μM protein. The heats of dilution measured from injection of the ligands into the buffer were subtracted, and titration curves were fitted using AFFINImeter software with a two-site binding model. Concentrations of Fe^3+-enterobactin solutions were verified with UV/vis spectrophotometry using a published molar extinction coefficient of ε495 = 5600 M^−1 cm^−1. […] Reverse titration has been also performed (PfeA into Fe^3+-enterobactin), but data suffer from high heats of dilution in the beginning of the blank titration of PfeA into the buffer giving estimates of K1 = 95 nM and K2 = 4.5 μM for the wild-type.
On the technique in general: ITC needs no label: the signal is the heat of the interaction.

The target of a further assay is T2, PfeA (Pseudomonas aeruginosa, UniProt Q05098).
T2 construct: His7 tag with TEV protease site (N, cleaved yes); made in house; host or cells: E. coli C43 (DE3)
Nature of the assay: coelution on S200 size-exclusion column, PfeA wild-type. Format: binding. The method, then:
Proteins were incubated with the Fe^3+-siderophore before being loaded on a S200 size-exclusion column.
Crystals of PfeA appeared at 20 °C after few days by mixing 2 μl of protein solution (10 mg.ml^−1) with 1 μl of reservoir solution containing 11% polyethylene glycol 8000, 0.05 M ADA pH 6.5 and 0.1 M magnesium acetate. Crystals were frozen with the same solution containing 25% ethylene glycol. Enterobactin structure complexes were obtained by soaking apo crystals for few hours with mother liquor containing 5 mM Fe^3+-enterobactin before cryoprotection. For the others complexes, crystals were cross-linked by diffusion of 25% glutaraldehyde prior the soaking. Co-crystallisation attempts have been performed by incubating the protein for 1 h at room temperature with the ligand before been loaded on a S200 16/60 column and concentrated for setting up the crystallisation plates. No crystals have been obtained by co-crystallisation. Crystallisation conditions of the mutants were the same as for the wild-type.

The target in a further assay is T3, PfeA R480A mutant (Pseudomonas aeruginosa, UniProt Q05098, R505A).
T3 construct: His7 tag with TEV protease site (N, cleaved yes); made in house; host or cells: E. coli C43 (DE3)
Nature of the assay: isothermal titration calorimetry, PfeA R480A. The class given is binding. The procedure: as §1, §2

T1 sequence (Q05098 26-746 R505A/Q507A): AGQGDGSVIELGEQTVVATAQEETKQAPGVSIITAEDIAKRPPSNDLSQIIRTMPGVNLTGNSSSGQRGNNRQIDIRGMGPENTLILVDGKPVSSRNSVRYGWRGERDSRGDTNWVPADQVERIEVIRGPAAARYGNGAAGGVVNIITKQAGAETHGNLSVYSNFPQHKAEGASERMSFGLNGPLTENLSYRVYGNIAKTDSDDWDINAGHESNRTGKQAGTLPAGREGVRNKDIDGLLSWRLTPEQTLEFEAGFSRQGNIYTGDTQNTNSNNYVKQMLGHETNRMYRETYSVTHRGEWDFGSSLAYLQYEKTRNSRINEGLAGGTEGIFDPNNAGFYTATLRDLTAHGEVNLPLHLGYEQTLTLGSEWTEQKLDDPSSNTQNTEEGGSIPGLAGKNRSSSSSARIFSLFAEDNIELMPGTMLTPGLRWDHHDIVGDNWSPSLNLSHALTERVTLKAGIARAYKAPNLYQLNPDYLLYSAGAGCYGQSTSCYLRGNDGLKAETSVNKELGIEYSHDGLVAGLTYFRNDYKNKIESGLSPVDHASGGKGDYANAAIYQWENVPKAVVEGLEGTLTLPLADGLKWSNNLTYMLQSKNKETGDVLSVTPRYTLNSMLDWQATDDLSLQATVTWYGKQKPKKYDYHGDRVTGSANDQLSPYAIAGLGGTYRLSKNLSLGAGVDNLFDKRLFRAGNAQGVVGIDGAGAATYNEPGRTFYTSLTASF
T3 sequence (Q05098 26-746 R505A): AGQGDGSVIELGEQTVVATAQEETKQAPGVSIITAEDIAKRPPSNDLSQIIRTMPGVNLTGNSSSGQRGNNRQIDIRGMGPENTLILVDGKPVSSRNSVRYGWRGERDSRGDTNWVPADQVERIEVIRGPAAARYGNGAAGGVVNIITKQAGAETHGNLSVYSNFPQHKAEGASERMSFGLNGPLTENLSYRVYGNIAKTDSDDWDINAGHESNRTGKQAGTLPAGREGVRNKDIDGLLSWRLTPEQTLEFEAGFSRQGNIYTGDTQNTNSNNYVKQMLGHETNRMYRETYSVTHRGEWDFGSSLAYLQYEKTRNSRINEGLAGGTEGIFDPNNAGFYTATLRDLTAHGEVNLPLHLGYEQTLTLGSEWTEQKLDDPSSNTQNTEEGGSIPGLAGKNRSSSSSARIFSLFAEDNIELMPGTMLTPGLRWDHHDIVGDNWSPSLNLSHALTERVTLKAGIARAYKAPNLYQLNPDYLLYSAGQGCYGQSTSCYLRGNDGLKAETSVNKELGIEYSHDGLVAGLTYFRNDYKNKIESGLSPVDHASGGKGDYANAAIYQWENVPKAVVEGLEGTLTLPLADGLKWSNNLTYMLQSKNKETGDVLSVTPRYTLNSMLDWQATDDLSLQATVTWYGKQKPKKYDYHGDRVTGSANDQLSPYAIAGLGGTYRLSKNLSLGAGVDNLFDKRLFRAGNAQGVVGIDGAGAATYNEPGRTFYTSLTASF
T2 sequence (Q05098 26-746): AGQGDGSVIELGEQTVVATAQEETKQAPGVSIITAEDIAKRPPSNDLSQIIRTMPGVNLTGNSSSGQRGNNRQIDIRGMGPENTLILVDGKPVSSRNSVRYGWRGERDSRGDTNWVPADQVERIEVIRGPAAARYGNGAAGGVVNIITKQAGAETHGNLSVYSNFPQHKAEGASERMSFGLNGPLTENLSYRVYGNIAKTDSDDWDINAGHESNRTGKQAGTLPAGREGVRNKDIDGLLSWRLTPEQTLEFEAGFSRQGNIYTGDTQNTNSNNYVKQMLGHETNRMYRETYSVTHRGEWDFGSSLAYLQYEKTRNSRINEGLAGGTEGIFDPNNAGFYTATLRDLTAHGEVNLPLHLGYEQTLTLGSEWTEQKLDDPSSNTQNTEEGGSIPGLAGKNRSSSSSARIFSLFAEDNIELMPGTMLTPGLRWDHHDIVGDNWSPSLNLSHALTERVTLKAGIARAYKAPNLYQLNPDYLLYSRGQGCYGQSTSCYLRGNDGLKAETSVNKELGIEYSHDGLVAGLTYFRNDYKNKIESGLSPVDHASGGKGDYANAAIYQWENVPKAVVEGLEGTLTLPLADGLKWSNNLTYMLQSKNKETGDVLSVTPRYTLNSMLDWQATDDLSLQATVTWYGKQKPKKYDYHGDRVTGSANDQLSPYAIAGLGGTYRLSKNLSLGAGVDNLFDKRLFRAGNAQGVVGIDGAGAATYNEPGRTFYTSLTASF

For the molecule `O=C(N[C@H]1COC(=O)[C@@H](NC(=O)c2cccc([O-])c2[O-])COC(=O)[C@@H](NC(=O)c2cccc([O-])c2[O-])COC1=O)c1cccc([O-])c1[O-].[Fe+3]` [Fe^3+-enterobactin], the “^55Fe-siderophore binding at the bacterial surface” value in assay [1] (CCCP treated cells (200 µM), 500 nM ^55Fe-enterobactin, 30 min) was “same low level of binding as wild-type PAO1”. Further, the “55Fe count, Comptage” value is 1560 dpm and 1268 dpm and 1340 dpm in assay [1] (∆pfeA + CCCP); 3228 dpm and 4151 dpm and 2977 dpm in assay [1] (∆pfeA, no CCCP). Moreover, the 55Fe-enterobactin bound/taken up is 20.0147 pmol/ml/DO600 and 16.2683 pmol/ml/DO600 and 17.1921 pmol/ml/DO600 in assay [1] (∆pfeA + CCCP); 41.415 pmol/ml/DO600 and 53.257 pmol/ml/DO600 and 38.1947 pmol/ml/DO600 in assay [1] (∆pfeA, no CCCP). For the same molecule, the “binding by ITC” value is given as “no binding was detected; also recorded: did not show any detectable binding” in assay [2] and “typical low affinity-binding curve profile; also recorded: weakened (but detectable) binding” at PfeA R480A mutant. Moreover, at PfeA, the “coelution with protein on size-exclusion column” value was “coelute with PfeA”.
